7 compounds from DBAASP can be followed below.

Each structure is given as a SMILES string. Values after ≈ are worked out from the molar mass of the structure shown.

One may read the MIC as the least concentration at which growth counts as inhibited.

Holding throughout (assay): ≥ marks a high value that may be exact or a test limit, other limits are often not marked, values filed in µg/mL are converted to µM
Test [1] relates to Bacillus cereus CMCC 6303.
For test [2], the system named is Bacillus subtilis KCTC 3068.
Test [3] relates to Cronobacter sakazakii ATCC 29544.
The subject of test [4] is Escherichia coli KCTC 1682.
In the next test the test system is Escherichia coli UB1005.
Test [5] deals with Listeria monocytogenes CMCC 54004.
Test [6] has as its system Pseudomonas aeruginosa KCTC 1637.
For test [7], the system named is Salmonella enterica subsp. enterica CMCC 47020.
The test system of test [8] is Salmonella enterica subsp. enterica serovar Pullorum C79-13.
In test [9] the test system is Salmonella enterica subsp. enterica serovar Typhi CMCC 50071.
For test [10], the system named is Salmonella enterica subsp. enterica serovar Typhimurium ATCC 14028.
Test [11] has as its system Salmonella enterica subsp. enterica serovar Typhimurium C77-31.
For test [12], the system named is Salmonella typhimurium KCTC 1926.
The subject of test [13] is Staphylococcus aureus ATCC 25923.
The test system of test [14] is Staphylococcus aureus CMCC 26074.
Test [15] deals with Staphylococcus aureus KCTC 1621.
Test [16] concerns Staphylococcus epidermidis KCTC 1917.
For test [17], the system named is Pseudomonas aeruginosa H187.
In another test the test system is Escherichia coli K-12.
The subject of test [18] is Pseudomonas aeruginosa PA214.
The subject of test [19] is Pseudomonas aeruginosa PA330.
Test [20] has as its system Pseudomonas aeruginosa PAO1.
Test [21] concerns Bacillus amyloliquefaciens ATCC 23842.
Test [22] relates to Bacillus cereus ATCC 14579.
The test system of test [23] is Bacillus licheniformis ATCC 14580.
The test system of test [24] is Bacillus subtilis ATCC 6051.
Test [25] concerns Enterococcus faecalis 1F-1.
Test [26] deals with Enterococcus faecium 5F-10.
In test [27] the test system is Escherichia coli ATCC 25922.
Test [28] deals with Proteus mirabilis ATCC 35659.
The subject of test [29] is Salmonella enterica ATCC H9812.
For test [30], the system named is Staphylococcus aureus ATCC 29213.
In test [31] the test system is Escherichia coli DH5alpha.
For test [32], the system named is Staphylococcus aureus SH1000.

With `CC[C@H](C)[C@@H]1NC(=O)[C@H](CCCN=C(N)N)NC(=O)[C@@H](NC(=O)[C@H](CC(C)C)NC(=O)[C@@H](N)CCCN=C(N)N)CSSC[C@@H](C(=O)N[C@@H](CCCN=C(N)N)C(N)=O)NC(=O)[C@H](C(C)C)NC(=O)[C@H](CCCN=C(N)N)NC(=O)[C@H]([C@@H](C)CC)NC(=O)[C@H](C(C)C)NC(=O)[C@H](C(C)C)NC1=O` [RLCRIVVIRVCR], the MIC in test [1] was not below 64 µM; in test [2] it was 4.21 µM (≈ 6.24 µg/mL); in test [3] it was not below 256 µM; in test [4], 8.41 µM (≈ 12.5 µg/mL); against Escherichia coli UB1005 it was not below 128 µM; in test [5] it was not below 128 µM. The MIC in test [6] is 16.8 µM (≈ 25 µg/mL); in test [7] it was not below 128 µM; in test [8] it was not below 256 µM; in [9], not below 64 µM; in test [10], 128 µM (≈ 190 µg/mL); in test [11], not below 256 µM. Further, the minimum inhibitory concentration (MIC) in [12] was 4.21 µM (≈ 6.24 µg/mL); in [13], more than 256 µM; in test [14] it was not below 256 µM; in test [15], 4.21 µM (≈ 6.24 µg/mL); in test [16], 4.21 µM (≈ 6.24 µg/mL).
Consider `CC[C@H](C)[C@H](NC(=O)[C@H](Cc1ccccc1)NC(=O)[C@H](CCCCN)NC(=O)[C@H](CCCCN)NC(=O)[C@H](Cc1c[nH]c2ccccc12)NC(=O)[C@@H](N)CCCCN)C(=O)N[C@@H](CCCCN)C(=O)N[C@@H](CCC(=O)O)C(=O)N[C@@H](CC(C)C)C(=O)N[C@@H](CCC(N)=O)C(=O)N[C@@H](CCCCN)C(=O)N[C@H](C(=O)N[C@@H](CC(C)C)C(=O)N[C@@H](C)C(=O)N1CCC[C@H]1C(=O)NCC(=O)NCC(=O)N[C@@H](CC(C)C)C(=O)N[C@@H](CC(C)C)C(=O)N[C@@H](CO)C(=O)N[C@@H](CC(N)=O)C(=O)N[C@H](C(=O)N[C@H](C(=O)N[C@H](C(=O)N[C@@H](CO)C(=O)N[C@@H](CC(C)C)C(=O)O)[C@@H](C)O)C(C)C)[C@@H](C)CC)C(C)C` [KWKKFIKELQKVLAPGGLLSNIVTSL], for which the figures for the MIC (in the test with Escherichia coli UB1005; in [17]) were 1.72 µM (≈ 5 µg/mL) and 3.43 µM (≈ 10 µg/mL), respectively.
On to `CC(C)C[C@H](NC(=O)[C@H](C)NC(=O)[C@H](CCCCN)NC(=O)[C@H](Cc1ccccc1)NC(=O)[C@H](CC(C)C)NC(=O)[C@H](CCCCN)NC(=O)[C@H](C)NC(=O)[C@H](Cc1c[nH]c2ccccc12)NC(=O)[C@H](CC(C)C)NC(=O)[C@H](CCCCN)NC(=O)[C@H](CC(C)C)NC(=O)[C@H](Cc1ccccc1)NC(=O)[C@H](C)NC(=O)[C@H](C)NC(=O)[C@H](CCCCN)NC(=O)[C@H](CCCCN)NC(=O)[C@@H](N)CCCCN)C(N)=O` [KKKAAFLKLWAKLFKAL], for which the MIC came to 3.1 µM (≈ 6.21 µg/mL) in the test with Escherichia coli K-12, 3.1 µM (≈ 6.21 µg/mL) in test [18], 6.3 µM (≈ 12.6 µg/mL) in test [19] and 3.1 µM (≈ 6.21 µg/mL) in test [20].
Consider `CC[C@H](C)[C@H](NC(=O)[C@H](CCCN=C(N)N)NC(=O)[C@H](CCCN=C(N)N)NC(=O)[C@H](CCCCN)NC(=O)[C@@H](N)CCCN=C(N)N)C(=O)N[C@H](C(=O)N[C@H](C(=O)N[C@H](C(=O)N[C@@H](CCCN=C(N)N)C(=O)N[C@@H](CCCN=C(N)N)C(=O)N[C@@H](CCCCN)C(=O)N[C@@H](CCCN=C(N)N)C(N)=O)[C@@H](C)CC)C(C)C)C(C)C` [RKRRIVVIRRKR], for which the MIC in test [1] is not below 128 µM; in test [3], not below 256 µM; in the test with Escherichia coli UB1005 it was not below 256 µM; in test [5], not below 32 µM; in test [7], not below 256 µM; in test [8] it was not below 256 µM. Further, the MIC in [9] is not below 256 µM; in test [10] it was 128 µM (≈ 209 µg/mL); in test [11], not below 256 µM; in test [13] it was more than 256 µM; in test [14], not below 256 µM.
Consider `CC(C)C[C@H](NC(=O)[C@@H](N)CC(C)C)C(=O)N[C@@H](CO)C(=O)N[C@@H](CCCN=C(N)N)C(=O)N[C@H](C(=O)O)C(C)C` [LLSRV], for which the MIC in test [21], in [22], in test [23], in test [24], in test [25] and in [26] was not below 218 µM each time. The MIC in test [27] is more than 218 µM; in test [28], not below 218 µM; in [20], more than 218 µM; in test [29] it was not below 218 µM; in [30], more than 218 µM.
In the case of `C[C@H](NC(=O)[C@H](C)NC(=O)[C@H](CCCCN)NC(=O)[C@H](Cc1ccccc1)NC(=O)[C@H](C)NC(=O)[C@H](CCCCN)NC(=O)[C@H](C)NC(=O)[C@H](Cc1c[nH]c2ccccc12)NC(=O)[C@H](C)NC(=O)[C@H](CCCCN)NC(=O)[C@H](C)NC(=O)[C@H](Cc1ccccc1)NC(=O)[C@H](C)NC(=O)[C@H](CCCCN)NC(=O)[C@H](C)NC(=O)[C@H](CCCCN)NC(=O)[C@@H](N)CCCCN)C(N)=O` [KKAKAFAKAWAKAFKAA], the MIC is 12.5 µM (≈ 22.9 µg/mL) in the test with Escherichia coli K-12, not below 50 µM in test [18], not below 50 µM in test [19] and 25 µM (≈ 45.9 µg/mL) in test [20].
For the compound `CC[C@H](C)[C@H](NC(=O)[C@H](C)NC(=O)[C@H](CCCCN)NC(=O)[C@@H](NC(=O)[C@H](CC(C)C)NC(=O)[C@H](CCCCN)NC(=O)[C@H](CCCCN)NC(=O)[C@@H](NC(=O)CNC(=O)[C@H](C)NC(=O)[C@H](Cc1ccccc1)NC(=O)[C@H](Cc1ccc(O)cc1)NC(=O)[C@@H]1CCCN1C(=O)[C@H](CC(=O)O)NC(=O)[C@@H](N)Cc1c[nH]c2ccccc12)C(C)C)[C@@H](C)O)C(=O)N[C@@H](CC(C)C)C(=O)N[C@@H](C)C(=O)N[C@H](C(=O)N[C@@H](CCCN=C(N)N)C(=O)N[C@@H](C)C(N)=O)C(C)C` [WDPYFAGVKKLTKAILAVRA], the MIC in test [31] and in [32] was not below 50 µM each time.
